The target of the assay is T1, hGPR40 (Homo sapiens, UniProt O14842).
T1 construct: 3xFLAG; expressed in transfected cells
Nature of the assay: FDSS-Based Intracellular Calcium Assay (Human GRP40 In Vitro assay). The conditions noted are these: cell lines expressing GPR40, intracellular Ca2+ response, FDSS reader. The protocol:
FDSS-Based Intracellular Calcium Assay
Cell lines expressing GPR40 are generated using the pDEST 3xflag gene expression system and are cultured in culture medium comprising the following components: F12 (Gibco #11765), 10% lipid deprived fetal bovine serum, 250 ug/ml zeocin and 500 ug/ml G418. To conduct the fluorescent imaging plate reader (FLIPR)-based calcium flux assay to measure intracellular Ca^2+ response, cells expressing GPR40 are plated on 384 well plates (BD Biocoat #356697) at a density of 20,000 cells/20 ul medium per well in phenol red and serum-free DMEM (Gibco #21063-029) and incubated overnight. Using BD kit #s 80500-310 or -301, the cells are incubated with 20 ul per well of Hank's buffered salt solution with 1.7 mM probenecid and Fluo-3 at 37° C. for 30 minutes. Compounds are dissolved in DMSO and diluted to desired concentrations with assay buffer and added to the cells as 3× solution (20 ul per well). Run fluorescence/luminescence reader FDSS (Hamamatsu) to read intracellular Ca^2+ response.
Table 1 below lists hGPR40 EC50 values measured for the following examples.
For orientation: A change in cytosolic calcium serves as a functional read-out for many receptors and channels.

For 13 compounds, EC50 results are on record in patent US8288404B2, “Pyrrolidine GPR40 modulators” (Bristol-Myers Squibb Company, priority 2009, dated 2012).

Usually EC50 stands for the midpoint of the concentration-response curve.

Counter-ions that a name gives are not always drawn.

T1 sequence (O14842 whole entry): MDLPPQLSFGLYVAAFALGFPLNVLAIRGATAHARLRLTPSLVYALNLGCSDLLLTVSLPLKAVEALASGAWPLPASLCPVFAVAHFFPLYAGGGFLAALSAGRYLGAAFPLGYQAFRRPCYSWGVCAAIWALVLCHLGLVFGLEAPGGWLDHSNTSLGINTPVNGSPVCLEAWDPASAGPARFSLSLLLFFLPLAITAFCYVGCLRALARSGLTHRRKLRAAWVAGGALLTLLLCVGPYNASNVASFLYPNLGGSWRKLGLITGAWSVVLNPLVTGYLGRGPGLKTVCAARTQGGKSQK

`Cc1ccccc1Oc1ccc(N2CCC[C@H]2CC(=O)O)cc1F` [Example 1, (S)-2-(1-(3-fluoro-4-(o-tolyloxy)phenyl)pyrrolidin-2-yl)acetic acid, TFA]: the EC50 stood at 1630 nM.
On to `Cc1cccc(C)c1Oc1ccc(N2CCC[C@@H]2CC(=O)O)cc1` [Example 4, (R)-2-(1-(4-(2,6-dimethylphenoxy)phenyl)pyrrolidin-2-yl)acetic acid, HCl], for which the EC50 is 3800 nM.
As for `Cc1ccccc1Oc1ccc(N2CCC[C@H]2CC(=O)O)cc1` [Example 5, (S)-2-(1-(4-(o-tolyloxy)phenyl)pyrrolidin-2-yl)acetic acid, HCl], the EC50 worked out at 65 nM.
For `Cc1ccccc1Cc1ccc(N2C[C@@H](C(F)(F)F)C[C@H]2CC(=O)O)cc1` [Example 40, 2-((2S,4S)-1-(4-(2-methylbenzyl)phenyl)-4-(trifluoromethyl)pyrrolidin-2-yl)acetic acid, TFA] the value was 61 nM.
For `Cc1ccccc1Oc1ccc(N2C[C@@H](C(F)(F)F)C[C@H]2CC(=O)O)cc1` [Example 41, 2-((2S,4S)-1-(4-(o-tolyloxy)phenyl)-4-(trifluoromethyl)pyrrolidin-2-yl)acetic acid, TFA] the value was 56 nM.
In the case of `Cc1ccccc1Sc1ccc(N2CCC[C@H]2CC(=O)O)cc1` [Example 44, (S)-2-(1-(4-(o-tolylthio)phenyl)pyrrolidin-2-yl)acetic acid, TFA], the EC50 amounted to 352 nM.
`COc1ccc(Oc2ccc(N3C[C@@H](C(F)(F)F)C[C@H]3CC(=O)O)cc2)c(C)c1` [Example 50, 2-((2S,4S)-1-(4-(4-methoxy-2-methylphenoxy)phenyl)-4-(trifluoromethyl)pyrrolidin-2-yl)acetic acid, TFA]: the EC50 came to 55 nM.
As for `O=C(O)C[C@@H]1C[C@H](C(F)(F)F)CN1c1ccc(Oc2ccccc2C(F)(F)F)cc1` [Example 52, 2-((2S,4S)-4-(trifluoromethyl)-1-(4-(2-(trifluoromethyl)phenoxy)phenyl)pyrrolidin-2-yl)acetic acid, TFA], the EC50 stood at 305 nM.
`CO[C@H]1C[C@@H](CC(=O)O)N(c2ccc(Oc3ccccc3C)cc2)C1` [Example 56, 2-((2S,4S)-4-methoxy-1-(4-(o-tolyloxy)phenyl)pyrrolidin-2-yl)acetic acid, TFA]: the EC50 was found to be 2320 nM.
Turning to `O=C(O)C[C@@H]1CCCN1c1ccc(Cc2ccc(OCc3ccccc3)cc2)cc1` [Example 58, (S)-2-(1-(4-(4-(benzyloxy)benzyl)phenyl)pyrrolidin-2-yl)acetic acid, TFA], the EC50 was 331 nM.
For `COc1ccc(F)c(-c2cccc(Oc3ccc(N4CCC[C@H]4CC(=O)O)cc3)c2C)c1` [Example 68, 2-((2S)-1-(4-(2′-fluoro-5′-methoxy-2-methylbiphenyl-3-yloxy)phenyl)pyrrolidin-2-yl)acetic acid, TFA] the value was 314 nM; for `Cc1ccccc1COc1cc(N2CCC[C@H]2CC(=O)O)ccn1` [Example 76, (S)-2-(1-(2-(2-methylbenzyloxy)pyridin-4-yl)pyrrolidin-2-yl)acetic acid, TFA], 4390 nM.
Take `Cc1ccc(COc2ccc(N3CCC[C@@H]3CC(=O)O)cc2)cc1` [Example 109]: the EC50 was 4340 nM.
